# According to patent US20250207167A1, “ASPERGILLUS SP. L14-OE::LAEA2 AND APPLICATION THEREOF IN PRODUCING CYCLIC TRIPEPTIDES” (Zhejiang University of Technology, priority 2023, published 2025):
# Key:
# [1] = tested on: Candida albicans ATCC 10231; test: Antifungal activity against Candida albicans (serial dilution MIC); format: cell-based; conditions: 48 hours at 30° C., absorbance at 600 nm; for MIC: Candida albicans, ATCC10231
# Protocol: Candida albicans ATCC 10231, as an indicator strain, is activated for 3 days at 30° C. on the Sabouraud solid medium, and then amplified for 2 days at 30° C. and 180 rpm in the Sabouraud liquid medium to obtain an indicator liquid for antifungal activity testing.
# An outermost ring of a 96-well plate is filled with 100 μL of the Sabouraud liquid medium for blank culture to prevent contamination; a first well of the 96-well plate is added with samples and the indicator liquid, with a total solution volume of 200 μL and a sample concentration of 128 μg/mL in the first well. A “serial dilution method” is used to achieve sample concentrations of 64, 32, 16, 8, 4, 2, 1, 0.5, and 0.25 μg/mL respectively in subsequent wells. Each sample has three parallel controls, and is incubated for 48 hours at 30° C. Then, the absorbance of the indicator liquid is measured at 600 nm using a microplate reader, and minimum inhibitory concentrations (MIC) of the compounds are recorded. The samples are the compound I, the compound II, and the compound III, with Amphotericin B as the control.
# [2] = tested on: human brain glioma cell line (HEB); test: SRB tumor cell growth inhibition, HEB; format: cell-based; conditions: 72 h, 3 days, read-out: human brain glioma cell line HEB growth inhibition rate %
# Excerpt: (§1) A Sulforhodamine B (SRB) colorimetric method is used to perform in vitro growth inhibition experiments on tumor cells with the isolated monomeric compounds A human brain glioma cell line (HEB) and a human hepatocellular carcinoma cell line (Hep-G2) both from Cell Resource Center, Institute of Basic Medical Sciences ([…]), China. Tumor cells in a logarithmic growth phase are selected and digested with trypsin followed by adjusting a cell concentration to 2×10^4 cells/mL with a Roswell Park memorial institute 1640 (RPMI 1640) medium containing 10% fetal bovine serum to obtain a tumor cell suspension. Sample solutions: the compound I, the compound II, and the compound III prepared in the embodiment 3 are separately added with DMSO to prepare 200 μM of the sample solutions. Control antibiotic solution: The antibiotic 5-fluorouracil (5-FU) is diluted with DMSO to prepare 100 μM of the control antibiotic solution. The tumor cell suspensions in Table 11 are inoculated into a 96-well culture plate at 190 μL per well, and then incubated at 37° C. with 5% carbon dioxide (CO2) for 24 hours. The culture wells are divided into drug wells, control wells, and blank wells. […] The blank wells are added with 10 μL of the RPMI 1640 medium containing 10% fetal bovine serum and an equal volume of DMSO as a solvent. The 96-well culture plate is then at 37° C. with 5% CO2 for incubation for 3 days followed by removing culture medium. Then, each well of the 96-well culture plate is slightly added with 100 μL of the 50% TCA solution pre-cooled at 4° C., and then allowed to stand for 5 min, followed by moving the 96-well culture plate to 4° C. for 1 hour to fix cells to obtain a cell-fixed plate. After discarding the fixing solution from the cell-fixed plate, the wells of the cell-fixed plate are washed five times with distilled water to remove TCA and then air-dried for 1 hour to obtain a first dried plate. Each well of the first dried plate is added with 80 μL of the 0.4% SRB solution for staining at room temperature for 30 min to obtain a stained plate. After discarding the staining solution of the stained plate, the stained plate is washed five times by 1% acetic acid aqueous solution to fully remove unbound SRB and then air-dried for 1 hour to obtain a second dried plate. Each well of the second dried plate is added with 150 μL of the 10 mM Tris-based solution for dissolving, and then oscillated for 5 min on a mini shaker (Mini shaker Kylin-Bell Lab instruments) to obtain an oscillated plate. Samples from each well of the oscillated plate are taken and an OD value at 570 nm is measured for each sample by using an M5 microplate reader.
# [3] = tested on: human hepatocellular carcinoma cell line (Hep-G2); test: SRB tumor cell growth inhibition, Hep-G2; format: cell-based; conditions: HepG2, 72 h, 3 days, read-out: human hepatocellular carcinoma cell line Hep-G2 growth inhibition rate %
# Excerpt: as §1
# [4] = DPPH antioxidant activity test; format: biochemical; conditions: for Antioxidant activity IC50 value: DPPH scavenging, 37° C. half an hour
# Protocol: 1 mg of solid DPPH is dissolved in 24 mL of methanol and then ultrasonicated for 5 min, followed by shaking thoroughly to obtain DPPH solution to ensure uniformity throughout the DPPH solution. 1 mL of the DPPH solution is taken and diluted by adding 0.5 mL of 95% methanol to obtain a diluted solution with an absorbance in a range of 0.6-1.0. The samples are added with methanol to prepare 1 mg/mL of sample solutions. The sample solutions are separately added to the DPPH solution while mixing continuously with a small start amount to obtain mixed solutions and an addition amount of the sample solutions gradually increases. Solution decolorization is observed when adding the sample solutions. When color of the mixed solutions has essentially faded, a maximum amount of the added sample solution is recorded. Based on the maximum amount, five additional amounts are set in an arithmetic sequence moving backwards. A final measurement is performed according to the arithmetic sequence, and for each amount, three parallel data points are measured. An absorbance value (A value) at each amount may be measured after placing the mixed solutions in a 37° C. oven for half an hour. An experimental antioxidant concentration serves as an x-axis and a scavenging rate serves as a y-axis, then a linear regression equation is calculated. 50% scavenging rate is substituted into the linear regression equation to obtain a corresponding x-axis value, which is a half-maximal inhibitory concentration (IC50) value. The samples are the compound I, the compound II, and the compound III, with vitamin C (Vc) as the control. The scavenging rate=((A0−A)/A0)×100; where A0 represents a value before adding the sample solutions, and A represents a value after adding the sample solutions.
# [5] = according to literature searches; cited from earlier work
# [6] = tested on: silkworms and American moths; conditions: against silkworms and American moths; literature; cited from earlier work
# [7] = tested on: Candida albicans; conditions: reported in literature; cited from earlier work
SMILES,MIC [1] [µg/mL],Antioxidant activity IC50 value [4] [µg/mL],antioxidant activity (in words) [4],inhibition at 10 µM [2] [%],inhibition at 10 µM [3] [%],also measured
"C[C@@H]1[C@H](O)[C@@H](C)/C=C/C=C/C=C/C=C/C=C/C=C/C=C/[C@H](O[C@@H]2O[C@H](C)[C@@H](O)[C@H](N)[C@@H]2O)C[C@@H]2O[C@](O)(C[C@@H](O)C[C@@H](O)[C@H](O)CC[C@@H](O)C[C@@H](O)CC(=O)O[C@H]1C)C[C@H](O)[C@H]2C(=O)O [Amphotericin B, reference compound]",,,,,,MIC value against the Candida albicans ATCC 10231 [1]: 2 µg/mL
"O=c1[nH]cc(F)c(=O)[nH]1 [Compound 5-FU, 5-fluorouracil, reference compound]",,,,,,"inhibition at 5 µM ([2]; positive control, 5 μM): 69.5%; inhibition at 5 µM ([3]; positive control, 5 μM): 71.3%"
"C/C=C/C=C/C=C/C(=O)N[C@H]1CCCNC(=O)[C@H](C)N(C)C(=O)[C@H](C(C)C)N(C)C1=O [Compound I, aspochracin]",> 128,420,moderate antioxidant activity,-19.9,-17.9,mammalian toxicity [5]: extremely low mammalian toxicity; insecticidal activity [6]: recognized insecticidal activity
"C/C=C/C=C/C=C/C(=O)N[C@H]1CCCNC(=O)[C@H](C)NC(=O)[C@H](C(C)C)N(C)C1=O [Compound II, JBIR-15]",32,400,moderate antioxidant activity,-6.04,11.8,"anti-Candida albicans activity, minimum inhibitory concentration (MIC) [7]: 30 µg/mL"

# More lines, main results first:
MIC [1] [µg/mL],Antioxidant activity IC50 value [4] [µg/mL],SMILES,antioxidant activity (in words) [4],inhibition at 10 µM [2] [%],inhibition at 10 µM [3] [%],also measured
> 128,430,"C/C=C/C=C/C=C/C(=O)N[C@H]1CCCCNC(=O)[C@H](C)N(C)C(=O)[C@H](C(C)C)N(C)C1=O [Compound III, sclerotiotide C]",moderate antioxidant activity,-13.7,21.1,
,9,"O=C1O[C@H]([C@@H](O)CO)C(O)=C1O [Vc, vitamin C, reference compound]",,,,
